Results from ChEMBL document CHEMBL3259791, “Discovery of (E)-3-((styrylsulfonyl)methyl)pyridine and (E)-2-((styrylsulfonyl)methyl)pyridine derivatives as anticancer agents: synthesis, structure-activity relationships, and biological activities” (J Med Chem, 2014).

Key:
Format in all cases: functional
A2780 [1] = assay: Induction of apoptosis in human A2780 cells assessed as late-stage apoptotic cells at 1 uM after 48 hrs by annexin V/PI double staining (reference value: 10.20%)
[2] = Antiproliferative activity against human PANC1 cells assessed as cell growth inhibition after 72 hrs by MTT assay; conditions: PANC-1, 72 h
WI-38 [3] = assay: Cell cycle arrest in human WI38 cells assessed as accumulation at G1 phase at 0.06 uM after 24 hrs by flow cytometric analysis (reference value: 55.89%)
A2780 [4] = assay: Cell cycle arrest in human A2780 cells assessed as accumulation at subG1 phase at […] after 24 hrs by flow cytometric analysis (reference value: 0.62%)
A2780 [5] = assay: Induction of apoptosis in human A2780 cells assessed as viable cells at […] after 48 hrs by annexin V/PI double staining (reference value: 82.12%); conditions: A2780, 48 h, read-out: Activity
WI-38 [6] = assay: Induction of apoptosis in human WI38 cells assessed as necrotic cells at […] after 48 hrs by annexin V/PI double staining (reference value: 0.99%)
WI-38 [7] = assay: Induction of apoptosis in human WI38 cells assessed as viable cells at 0.06 uM after 48 hrs by annexin V/PI double staining (reference value: 80.59%); conditions: WI-38, 48 h, read-out: Activity
WI-38 [8] = assay: Induction of apoptosis in human WI38 cells assessed as early-stage apoptotic cells at 1 uM after 48 hrs by annexin V/PI double staining (reference value: 2.16%)
A2780 [9] = assay: Induction of apoptosis in human A2780 cells assessed as early-stage apoptotic cells at […] after 48 hrs by annexin V/PI double staining (reference value: 7.13%)
WI-38 [10] = assay: Induction of apoptosis in human WI38 cells assessed as early-stage apoptotic cells at […] after 48 hrs by annexin V/PI double staining (reference value: 2.16%)
WI-38 [11] = assay: Cell cycle arrest in human WI38 cells assessed as accumulation at subG1 phase at […] after 24 hrs by flow cytometric analysis (reference value: 10.53%)
A2780 [12] = assay: Cell cycle arrest in human A2780 cells assessed as accumulation at S phase at 0.06 uM after 24 hrs by flow cytometric analysis (reference value: 22.72%)
A2780 [13] = assay: Induction of apoptosis in human A2780 cells assessed as viable cells at 1 uM after 48 hrs by annexin V/PI double staining (reference value: 82.12%); conditions: A2780, 48 h, read-out: Activity
WI-38 [14] = assay: Cell cycle arrest in human WI38 cells assessed as accumulation at G1 phase at […] after 24 hrs by flow cytometric analysis (reference value: 55.89%)
WI-38 [15] = assay: Induction of apoptosis in human WI38 cells assessed as early-stage apoptotic cells at 0.06 uM after 48 hrs by annexin V/PI double staining (reference value: 2.16%)
A2780 [16] = assay: Cell cycle arrest in human A2780 cells assessed as accumulation at G2/M phase at 1 uM after 24 hrs by flow cytometric analysis (reference value: 21.81%)
HeLa = assay: Antiproliferative activity against human HeLa cells assessed as cell growth inhibition after 72 hrs by MTT assay
A2780 [17] = assay: Induction of apoptosis in human A2780 cells assessed as late-stage apoptotic cells at 0.06 uM after 48 hrs by annexin V/PI double staining (reference value: 10.20%)
A2780 [18] = assay: Induction of apoptosis in human A2780 cells assessed as late-stage apoptotic cells at […] after 48 hrs by annexin V/PI double staining (reference value: 10.20%)
A2780 [19] = assay: Cell cycle arrest in human A2780 cells assessed as accumulation at G1 phase at 0.06 uM after 24 hrs by flow cytometric analysis (reference value: 54.89%)
WI-38 [20] = assay: Induction of apoptosis in human WI38 cells assessed as late-stage apoptotic cells at 0.06 uM after 48 hrs by annexin V/PI double staining (reference value: 16.26%)
A2780 [21] = assay: Cell cycle arrest in human A2780 cells assessed as accumulation at S phase at […] after 24 hrs by flow cytometric analysis (reference value: 22.72%)
WI-38 [22] = assay: Antiproliferative activity against human WI38 cells assessed as cell growth inhibition after 72 hrs by MTT assay; conditions: WI-38, 72 h
A2780 [23] = assay: Cell cycle arrest in human A2780 cells assessed as accumulation at S phase at 1 uM after 24 hrs by flow cytometric analysis (reference value: 22.72%)
A2780 [24] = assay: Antiproliferative activity against human A2780 cells assessed as cell growth inhibition after 72 hrs by MTT assay; conditions: A2780, 72 h
A2780 [25] = assay: Induction of apoptosis in human A2780 cells assessed as early-stage apoptotic cells at 1 uM after 48 hrs by annexin V/PI double staining (reference value: 7.13%)
WI-38 [26] = assay: Cell cycle arrest in human WI38 cells assessed as accumulation at G2/M phase at […] after 24 hrs by flow cytometric analysis (reference value: 17.36%)
A2780 [27] = assay: Induction of apoptosis in human A2780 cells assessed as viable cells at 0.06 uM after 48 hrs by annexin V/PI double staining (reference value: 82.12%); conditions: A2780, 48 h, read-out: Activity
WI-38 [28] = assay: Induction of apoptosis in human WI38 cells assessed as necrotic cells at 0.06 uM after 48 hrs by annexin V/PI double staining (reference value: 0.99%)
WI-38 [29] = assay: Induction of apoptosis in human WI38 cells assessed as necrotic cells at 1 uM after 48 hrs by annexin V/PI double staining (reference value: 0.99%)
A2780 [30] = assay: Induction of apoptosis in human A2780 cells assessed as early-stage apoptotic cells at 0.06 uM after 48 hrs by annexin V/PI double staining (reference value: 7.13%)
A2780 [31] = assay: Cell cycle arrest in human A2780 cells assessed as accumulation at subG1 phase at 1 uM after 24 hrs by flow cytometric analysis (reference value: 0.62%)
A2780 [32] = assay: Cell cycle arrest in human A2780 cells assessed as accumulation at G2/M phase at […] after 24 hrs by flow cytometric analysis (reference value: 21.81%)
WI-38 [33] = assay: Induction of apoptosis in human WI38 cells assessed as late-stage apoptotic cells at […] after 48 hrs by annexin V/PI double staining (reference value: 16.26%)
WI-38 [34] = assay: Cell cycle arrest in human WI38 cells assessed as accumulation at G2/M phase at 0.06 uM after 24 hrs by flow cytometric analysis (reference value: 17.36%)
WI-38 [35] = assay: Cell cycle arrest in human WI38 cells assessed as accumulation at subG1 phase at 0.06 uM after 24 hrs by flow cytometric analysis (reference value: 10.53%)
A2780 [36] = assay: Induction of apoptosis in human A2780 cells assessed as necrotic cells at […] after 48 hrs by annexin V/PI double staining (reference value: 0.53%)
LNCaP = assay: Antiproliferative activity against AR positive human LNCAP cells assessed as cell growth inhibition after 72 hrs by MTT assay

Row | GI50 (HeLa) [µM] | Compound | Activity (A2780 [1]) [%] | GI50 [2] [µM] | Activity (WI-38 [3]) [%] | Activity (A2780 [4]) [%] | viability at […] (A2780 [5]) [%] | Activity (WI-38 [6]) [%] | viability at 0.06 µM (WI-38 [7]) [%] | Activity (WI-38 [8]) [%] | Activity (A2780 [9]) [%] | Activity (WI-38 [10]) [%] | Activity (WI-38 [11]) [%] | Activity (A2780 [12]) [%] | viability at 1 µM (A2780 [13]) [%] | Activity (WI-38 [14]) [%] | Activity (WI-38 [15]) [%] | Activity (A2780 [16]) [%] | Activity (A2780 [17]) [%] | Activity (A2780 [18]) [%] | Activity (A2780 [19]) [%] | other results
1 | 0.012 | COc1cc(OC)c(/C=C/S(=O)(=O)Cc2ccc(OC)c(NCC(=O)O)c2)c(OC)c1 [RIGOSERTIB] | 21.83 | 0.039 | 64.47 | 5.98 | 46.2 | 1.89 | 85.5 | 8.88 | 38.11 | 5.36 | 9.46 | 26.34 | 26.6 | 54.39 | 1.68 | 60.57 | 6.27 | 14.92 | 53.41 | Activity (WI-38 [20]): 11.54%; Activity (A2780 [21]): 24.81%; GI50 (WI-38 [22]): > 10 µM; Activity (A2780 [23]): 33.83%; GI50 (A2780 [24]): 0.062 µM; Activity (A2780 [25]): 50.22%; Activity (WI-38 [26]): 26.83%; viability at 0.06 µM (A2780 [27]): 89.5%; Activity (WI-38 [28]): 1.25%; Activity (WI-38 [29]): 2.99%; Activity (A2780 [30]): 3.82%; Activity (A2780 [31]): 0.32%; Activity (A2780 [32]): 31.77%; Activity (WI-38 [33]): 19.49%; Activity (WI-38 [34]): 18%; Activity (WI-38 [35]): 5.71%; Activity (A2780 [36]): 0.71%; GI50 (LNCaP): 0.025 µM
2 | 0.556 | COc1cc(OC)c(/C=C/S(=O)(=O)Cc2ccc(OC)c(NS(C)(=O)=O)n2)c(OC)c1 | 24.63 | 0.604 | 51.48 | 0.77 | 88 | 1.11 | 78.1 | 10.08 | 5.55 | 2.86 | 11.06 | 20.54 | 35.6 | 61.63 | 2.49 | 59.38 | 7.36 | 5.88 | 57.73 | Activity (WI-38 [20]): 18.51%; Activity (A2780 [21]): 22.53%; GI50 (WI-38 [22]): > 10 µM; Activity (A2780 [23]): 19.16%; GI50 (A2780 [24]): 0.406 µM; Activity (A2780 [25]): 38.36%; Activity (WI-38 [26]): 14.08%; viability at 0.06 µM (A2780 [27]): 87.4%; Activity (WI-38 [28]): 0.86%; Activity (WI-38 [29]): 1.73%; Activity (A2780 [30]): 4.67%; Activity (A2780 [31]): 7.27%; Activity (A2780 [32]): 19.36%; Activity (WI-38 [33]): 11.58%; Activity (WI-38 [34]): 13.96%; Activity (WI-38 [35]): 10.05%; Activity (A2780 [36]): 0.48%; GI50 (LNCaP): 0.45 µM

Row | Compound | GI50 (HeLa) [µM] | Activity (A2780 [1]) [%] | GI50 [2] [µM] | Activity (WI-38 [3]) [%] | Activity (A2780 [4]) [%] | viability at […] (A2780 [5]) [%] | Activity (WI-38 [6]) [%] | viability at 0.06 µM (WI-38 [7]) [%] | Activity (WI-38 [8]) [%] | Activity (A2780 [9]) [%] | Activity (WI-38 [10]) [%] | Activity (WI-38 [11]) [%] | Activity (A2780 [12]) [%] | viability at 1 µM (A2780 [13]) [%] | Activity (WI-38 [14]) [%] | Activity (WI-38 [15]) [%] | Activity (A2780 [16]) [%] | Activity (A2780 [17]) [%] | Activity (A2780 [18]) [%] | Activity (A2780 [19]) [%] | other results
3 | COc1cc(OC)c(/C=C/S(=O)(=O)Cc2ccc(OC)c(N)n2)c(OC)c1 | < 0.001 | 21.09 | < 0.001 | 54.04 | 12.42 | 25.3 | 5.41 | 82.2 | 2.86 | 46.99 | 1.49 | 12.08 | 17.39 | 22.2 | 53.55 | 1.37 | 59.78 | 25.69 | 25.61 | 12.87 | Activity (WI-38 [20]): 13.04%; Activity (A2780 [21]): 22.54%; GI50 (WI-38 [22]): > 10 µM; Activity (A2780 [23]): 24.49%; GI50 (A2780 [24]): 0.007 µM; Activity (A2780 [25]): 55.45%; Activity (WI-38 [26]): 24.87%; viability at 0.06 µM (A2780 [27]): 33.3%; Activity (WI-38 [28]): 3.39%; Activity (WI-38 [29]): 1.83%; Activity (A2780 [30]): 38%; Activity (A2780 [31]): 2.71%; Activity (A2780 [32]): 50.94%; Activity (WI-38 [33]): 8.7%; Activity (WI-38 [34]): 22.85%; Activity (WI-38 [35]): 13.31%; Activity (A2780 [36]): 1.97%; GI50 (LNCaP): 0.003 µM
